# “And” between values parts separate entries of the source, which are not always exact repeats. Identical values can stand only once.
# What was measured:
# [1] = test system: A. thaliana ecotype Col-0; test: Root growth inhibition assay (primary root elongation); type: in vivo, Arabidopsis thaliana; details: Arabidopsis seedlings with IAA alone, 1 µM IAA
# Procedure: A. thaliana ecotype Col-0 seeds were sterilized in 70% household bleach, 0.2% Tween-20 for 10 min with vigorous agitation and then rinsed 10 times with sterile distilled water. Seeds were stratified at 4 °C in sterile distilled water for 1–2 d. […] Then 8 to 10 plants were aseptically transferred to 12 ×12 cm plates containing 0.5x MS agar medium without sucrose where the medium surface was spread with the bacterial inoculum. […] The plant root tip location was marked on plates after transfer to record the initial root tip position. […] Plates were imaged on a document scanner and primary root elongation was determined using imageJ to quantify the change in root tip position from the initial to the final position.
# Individual bacterial strains were grown on agar plates of the media types specified above at 28 °C. […] The optical density at 600 nm (OD600) was measured for each washed strain and normalized to OD600 of 0.01 in 10 mM MgCl2. […]
# The 175-member synthetic community (SC185-10V) was prepared as described for the 185-member synthetic community used previously[14] by leaving out the 10 isolates from the genus Variovorax. […] The OD600 of the strains in each well was measured and the strains were combined while normalizing the OD600 of each strain in the pool. […] The OD600 values of the 10 cultures were measured and the 10 strains were pooled while normalizing the OD600 of each strain to the same value. […]
# [2] = molecular target: Variovorax paradoxus CL14 MarR_73 (Variovorax paradoxus, UniProt C5CSP2); test: biochemical; type: binding; details: ITC, 25 °C, 20 mM HEPES pH 7.4, 50 mM NaCl, 0.5% DMSO, mean of two measurements ± standard error
# Procedure: (§1) The coding sequence for each gene can be found in Supplementary Table 10. MarR expression plasmids were synthesized as codon-optimized genes for E. coli expression by BioBasic in the pLIC-His N-term vector (pMCSG7) and transformed into E. coli BL21 (DE3) Gold cells for expression. […] At an OD600 of 0.8, protein expression was induced by the addition of 0.1 mM IPTG and incubation continued overnight. Cells were collected by centrifugation at 4,500 × g for 20 min at 4 °C in a Sorvall (model RC-3B) swinging bucket centrifuge. Cell pellets were resuspended in buffer A (20 mM potassium phosphate, pH 7.4, 50 mM imidazole, 500 mM NaCl), DNase, lysozyme and a Roche Complete EDTA-free protease inhibitor tablet. Resuspended cells were sonicated and clarified via centrifugation at 17,000 × g for 60 min in a Sorvall (model RC-5B) swinging bucket centrifuge. The lysate was applied to a nickel-nitrilotriacetic acid HP column (GE Healthcare) on an Aktaxpress Fast Performance Liquid Chromatography (FPLC) system (Amersham Bioscience) and washed with buffer A. Protein was eluted with buffer B (20 mM potassium phosphate, pH 7.4, 500 mM imidazole, 500 mM NaCl). Fractions containing the protein of interest were combined and passed over a HiLoadTM 16/60 SuperdexTM 200 gel filtration column. Proteins were eluted in S200 buffer (20 mM HEPES, pH 7.4, 300 mM NaCl). Fractions were combined and concentrated for long-term storage at −80 °C.
# (§2) All ITC measurements were performed at 25 °C using an Auto-ITC200 microcalorimeter (MicroCal/GE Healthcare). The buffer employed was 20 mM HEPES, pH 7.4, 50 mM NaCl and 0.5% dimethly sulfoxide (DMSO) for protein/ligand binding and 20 mM HEPES, pH 7.4 and 300 mM NaCl for DNA/protein binding experiments. For ligand binding experiments, the calorimetry cell (volume […]) was loaded with MarR wild-type, mutant or homologue protein at a concentration of 50 μM. The syringe was loaded with a ligand concentration of 0.5 or 2 mM. […] A typical injection protocol included a single 0.2 μl first injection followed by 20 1.5 μl injections of the syringe sample into the calorimetry cell. The spacing between injections was kept at 180 s and the reference power at 8 μcal s^−1. […] Two independent ITC measurements were performed for each condition.
# MarR_73 H32A = MarR_73 H32A (Variovorax paradoxus, UniProt C5CSP2, H32A); test: biochemical
# Procedure: as §1
# (§3) MarR mutant proteins were created by site-directed mutagenesis using primers from Integrated DNA Technologies. […] The mutants were produced and purified using E. coli BL21 (DE3) Gold as described above.
# as §2
# MarR_73 R46A = MarR_73 R46A (Variovorax paradoxus, UniProt C5CSP2, R46A); test: biochemical
# Procedure: as §1, §3, §2
# MarR_73 S28A = MarR_73 S28A (Variovorax paradoxus, UniProt C5CSP2, S28A); test: biochemical
# Procedure: as §1, §3, §2
# Sequence of Variovorax paradoxus CL14 MarR_73 (C5CSP2 entry or part of it): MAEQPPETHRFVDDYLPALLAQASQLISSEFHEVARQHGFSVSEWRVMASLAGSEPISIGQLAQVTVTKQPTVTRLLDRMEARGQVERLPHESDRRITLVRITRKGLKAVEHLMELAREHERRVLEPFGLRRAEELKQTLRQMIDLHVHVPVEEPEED
# Sequence of MarR_73 S28A (C5CSP2 1-158, stated change not applied): as the sequence (C5CSP2 entry or part of it) above
# Sequence of MarR_73 H32A (C5CSP2 1-158, stated change not applied): as the sequence (C5CSP2 entry or part of it) above
# Sequence of MarR_73 R46A (C5CSP2 1-158, stated change not applied): as the sequence (C5CSP2 entry or part of it) above
smiles,measurement,setting,value
"O=C(O)Cc1c[nH]c2ccccc12 [IAA, indole-3-acetic acid]",root growth inhibition (RGI) phenotype,[1],severe RGI phenotype
same,N (ligand binding stoichiometry to the MarR monomer),[2],0.732 ± 0.036
same,N (ligand binding stoichiometry to the MarR monomer),[2]; listed as Indole-3-Acetic Acid (IAA),0.73 ± 0.04
same,Kd,[2]; KD,410 nM and 408 nM
same,Kd,MarR_73 H32A,3100 ± 100 nM
same,N,"MarR_73 H32A; ITC, 25 °C, mutant H32A",0.28 ± 0.01
same,Kd,MarR_73 R46A,11000 ± 1000 nM
same,N,"MarR_73 R46A; ITC, 25 °C, mutant R46A",1.1 ± 0.1
same,Kd,MarR_73 S28A,2400 ± 100 nM
same,N,"MarR_73 S28A; ITC, 25 °C, mutant S28A",0.52 ± 0.01

# Reference: PMC9613470, “Diverse MarR bacterial regulators of auxin catabolism in the plant microbiome” (Nature Microbiology, 2022)
